Values joined by “and” are separate entries in the source; they are usually repeats but may differ in a detail not shown here. Equal entries are not always repeated.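 Results reflect a 48-hour exposure of cells in 96-well plates to compound at five concentrations. Here, GI50 denotes the concentration required for 50% inhibition of growth. The concentration for full growth arrest is given as TGI.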
Assays:
Assay in all cases: DTP human tumour cell line panel, 48 h
[1] = test system: UACC-62 melanoma
[2] = test system: EKVX NSCLC
[3] = test system: M14 melanoma
[4] = test system: DU-145 prostate
[5] = test system: UACC-257 melanoma
[6] = test system: UO-31 renal
[7] = test system: RXF 393 renal
[8] = test system: KM12 colon
[9] = test system: MOLT-4 leukemia
[10] = test system: MALME-3M melanoma

Row | Structure (SMILES) | GI50 [1] | TGI [1] | GI50 [2] | TGI [2] | GI50 [3] | TGI [3] | GI50 [4] | TGI [4] | GI50 [5] | TGI [5] | GI50 [6] | TGI [6] | GI50 [7] | TGI [7] | GI50 [8] | TGI [8] | GI50 [9] | TGI [9] | GI50 [10] | TGI [10]
1 | COc1ccccc1/C=C\C(=O)c1ccccc1 | 5.57 µM | 18.7 µM | 3.82 µM | 18.3 µM | 12.5 µM | 25.6 µM | 8.38 µM | 20.5 µM | 12.9 µM | 26.2 µM | 4.58 µM | 17.3 µM | 13 µM | 27.4 µM | 2.79 µM | 6.32 µM | 2.9 µM | 10.2 µM | 12.9 µM | 26.2 µM
2 | O=C(Cc1ccc(/C=C/C(=O)c2ncc[nH]2)cc1)Nc1ccc(C(F)(F)F)cc1 | 4.47 µM | 9.44 µM | 5.57 µM | 14.6 µM | 2.58 µM | 9.25 µM | 2.13 µM | 6.3 µM | 7.2 µM | 16.1 µM | 2.43 µM | 6.74 µM | 3.75 µM | 8.83 µM | 1.11 µM | 4.27 µM | 2.29 µM | 28.5 µM | 5.18 µM | 12.9 µM
3 | NC(=O)C(=O)n1ncc(Cl)c(Cl)c1=O | – | 54.4 µM | – | 67.5 µM | – | 46.9 µM | – | > 100 µM | – | 58.4 µM | – | 48.1 µM | – | > 43.1 µM | – | 62.5 µM | – | 20.4 µM | – | 38.7 µM
4 | CCC(=O)c1cc([N+](=O)[O-])c(Br)s1 | 14.4 µM | 28.8 µM | 16.4 µM | 34.8 µM | 3.13 µM | 10.6 µM | 4.31 µM | 13.3 µM | 1.21 µM | 2.52 µM | 1.59 µM | 2.98 µM | 1.88 µM | 3.31 µM | 11.6 µM | 24.2 µM | 2.7 µM | 13.2 µM | 1.85 µM | 3.87 µM
5 | C[C@@H]1C/C=C\C(=O)O[C@H](/C=C/C#C/C=C/C(C)(C)[C@@H](O)c2cccc(O)c2Br)[C@@H](C)/C=C/[C@H](C)C[C@H](OC(N)=O)C1 | 0.0239 µM | 0.0656 µM | 0.0716 µM | 18.7 µM | 0.0236 µM | 0.0639 µM | 0.0663 µM | 19.4 µM | 0.0322 µM | 4.08 µM | 0.0227 µM | 0.0799 µM | 0.636 µM | 7.81 µM | 0.0252 µM | 16.2 µM | 0.034 µM | 40.8 µM | 0.0419 µM | 4.6 µM
6 | CN(C)CCCN1c2ccccc2Sc2ccc(Cl)cc21 | 1.94 µM and 2.07 µM | 4.01 µM and 5.11 µM | 12.7 µM and 11.8 µM | 28.1 µM and 28 µM | 2.03 µM and 2.58 µM | 3.89 µM and 6.18 µM | 11.7 µM and 11.2 µM | 24.1 µM and 23.4 µM | 2.08 µM and 3.24 µM | 4.33 µM and 13 µM | 2.89 µM and 3.46 µM | 13.7 µM and 17.2 µM | 3.16 µM and 2.85 µM | 12.2 µM and 11 µM | 4.23 µM and 5.55 µM | 14.8 µM and 17.6 µM | 4.78 µM and 6.84 µM | 18.4 µM and 23.7 µM | 14.9 µM and 3.04 µM | 31.5 µM and 15.8 µM
7 | c1ccc(CC(NCCNC(Cc2ccccc2)c2ccccc2)c2ccccc2)cc1 (centres undefined) | 0.491 µM | 1.86 µM | 0.482 µM | 3.17 µM | 0.302 µM | 1.01 µM | 0.395 µM | 1.87 µM | 1.02 µM | 2.4 µM | 0.415 µM | 1.96 µM | 0.26 µM | 0.705 µM | 0.384 µM | 1.52 µM | 0.306 µM | 0.959 µM | 0.339 µM | 1.44 µM
8 | CC(C)(C)[Si](C)(C)OCC1OC(n2cnc3c(N)ncnc32)C(O)C1O (centres undefined) | – | > 100 µM | – | > 100 µM | – | > 100 µM | – | > 100 µM | – | > 100 µM | – | > 100 µM | – | > 100 µM | – | > 100 µM | – | > 100 µM | – | > 100 µM
9 | CN(C)C(=O)SC1=C(c2c(Cl)cccc2Cl)C(=O)c2ccccc21 | 3.85 µM | 8.24 µM | 17.4 µM | 40.3 µM | 3.03 µM | 7.79 µM | 2.4 µM | 5.61 µM | 5.16 µM | 9.81 µM | 2.18 µM | 6.51 µM | 4.18 µM | 8.59 µM | 14.8 µM | 28.6 µM | 2.5 µM | 7.06 µM | 1.66 µM | 3.74 µM
10 | O=c1[nH]c2cc(Cl)c(Cl)cc2n2cc3ccccc3c12 | 16.5 µM | 30.1 µM | 21.9 µM | 43.5 µM | 23 µM | 39.7 µM | 18 µM | 31.8 µM | 20.3 µM | 48.6 µM | 17.9 µM | 32.8 µM | 17.4 µM | 31.2 µM | 17.3 µM | 31.1 µM | 18.7 µM | 36.7 µM | 17.1 µM | 32.7 µM
11 | COc1ccc2[nH]c(-c3ccccc3)cc2c1 | 92.5 µM | > 100 µM | 59 µM | > 100 µM | > 100 µM | > 100 µM | > 100 µM | > 100 µM | > 100 µM | > 100 µM | > 100 µM | > 100 µM | > 100 µM | > 100 µM | 73.8 µM | > 100 µM | > 100 µM | > 100 µM | > 100 µM | > 100 µM
12 | CC[C@H](C)[C@H](NC(=O)[C@H]1CCCCN1C)C(=O)N(C)[C@H](C[C@@H](OC(C)=O)c1nc(C(=O)N[C@@H](Cc2ccccc2)C[C@H](C)C(=O)OC)cs1)C(C)C | – | > 25 µM | 0.000751 µM and 0.0025 µM | > 25 µM | 0.000331 µM and < 0.0025 µM | < 0.0025 µM | 0.000208 µM | – | 8.72 µM | > 25 µM | 0.0032 µM and 0.0025 µM | > 25 µM | 0.0025 µM | 22.7 µM | – | > 25 µM | 0.00331 µM and 0.0025 µM | > 25 µM | 0.442 µM | > 25 µM
13 | Cc1n(Cc2ccc3ccccc3c2)c(Cl)c(Cl)[n+]1Cc1ccc2ccccc2c1 | 1.38 µM | 2.74 µM | 2.4 µM | 8.01 µM | 1.79 µM | 3.99 µM | 2.22 µM | 5.26 µM | 1.81 µM | 4.21 µM | 1.71 µM | 8.24 µM | 1.66 µM | 3.16 µM | 1.71 µM | 3.24 µM | 2.31 µM | 5.58 µM | 1.54 µM | 3.46 µM
14 | CC[C@@]1(O)C(=O)OCc2c1cc1n(c2=O)Cc2cc3c(N)cccc3nc2-1 | 0.00361 µM | 0.033 µM and 0.0638 µM | – | 7.96 µM | 0.0042 µM | 0.292 µM | 0.004 µM | < 0.0299 µM | – | 2.99 µM | 0.00841 µM | 0.127 µM | 0.0893 µM | 0.34 µM | 0.0151 µM | 11.6 µM | 0.00295 µM | 0.0605 µM and 0.0649 µM | – | 1.88 µM
15 | COc1ccc2c(c1)nc1n2C(c2ccc(F)cc2)SC1 (centres undefined) | 16.6 µM | 34.9 µM | 21.8 µM | 61.9 µM | 26.3 µM | 83.5 µM | 15.2 µM | > 100 µM | 28.7 µM | > 100 µM | 23.5 µM | 67.9 µM | 82.9 µM | > 100 µM | 23.3 µM | 70.2 µM | 26.8 µM | > 100 µM | 23.5 µM | 63 µM

Reference: PubChem BioAssay (NCI)
